According to publication PMC5077133, “Towards Development of Small Molecule Lipid II Inhibitors as Novel Antibiotics” (PLoS ONE, 2016):
Read-outs that look alike come from different tables or passages of the source.

Assays:
[1] = target: T1, CYP2D6 (Homo sapiens, UniProt P10635); assay: Cytochrome P450 inhibition; type: in vitro ADME; settings: recombinant human CYP2D6 (Supersomes), pH 7.4, probe AMMC, IC50 fluorescence, substrate AMMC, read-out: P450 enzyme inhibition IC50 CYP2D6/ AMMC
T1 construct: purchased Corning
Procedure: (§1) The final concentration of each substrate was 1 μM.
(§2) Computation of IC50 values:The background of no-enzyme samples to determine the background value were averaged. The positive control or full-reaction samples to determine the signal value were averaged.
(§3) The percent activity of each sample was calculated as follows:
(§4) [(Test compound metabolite–average background)/(average signal–average background)] X 100 = % activity
(§5) The the IC50 value using non-linear regression was calculated.

[2] = target: T2, CYP2C19 (Homo sapiens, UniProt P33261); assay: Cytochrome P450 inhibition; type: in vitro ADME; settings: recombinant human CYP2C19 (Supersomes), pH 7.4, probe CEC, IC50 fluorescence, substrate CEC, read-out: P450 enzyme inhibition IC50 CYP2C19/CEC
T2 construct: purchased Corning
Procedure: as §1, §2, §3, §4, §5

[3] = target: T3, CYP3A4 (Homo sapiens, UniProt P08684); assay: Cytochrome P450 inhibition; type: in vitro ADME; settings: IC50 fluorescence
T3 construct: purchased Corning
Procedure: as §1, §2, §3, §4, §5

[4] = Plasma protein binding (Transil); type: in vitro ADME; settings: human, TRANSIL XL PPB plates (human plasma protein beads)
Procedure: Human plasma protein binding was determined using TRANSIL^XL PPB plates (Sovicell, Leipzig, Germany). The compound 6jc48-1 (15 ul, 32% DMSO stock solution) was added to each well of a column (8 wells total) on a room temperature equilibrated plate. The plate was incubated for twelve minutes on a shaker at 1000 rpm then centrifuged for 10 minutes at 750 × g to sediment the beads from the suspension. Aliquots (100 ul) were transferred from the supernatants to 96-well plate for MS analysis. Plasma protein binding data analysis was completed by using the supplied spreadsheet from the manufacturer (Sovicell, User Guide TRANSIL PPB binding kit V2.01, 2013).

[5] = tested on: Enterococcus faecalis EF1509; assay: Murine peritoneal sepsis model; type: in vivo, C57BL/6J mice; settings: 6jc48-1 100 mg/kg, ampicillin 300 mg/kg
From the text: Care of the mice met or exceeded the standards set forth by the National Institute of Health Guide for the care and use of laboratory animals and the AVMA panel on Euthanasia. All procedures in this study have been approved by the Institutional Animal Care and Use Committee (IACUC) at the University of Maryland Baltimore School of Medicine (Protocol number 02122005). Adult C57BL/6J mice (~18 grams, 8–10 weeks old) were used for all experiments. Mice were obtained from the Jackson Laboratory (Bar Harbor, Maine, USA) and housed in the IHV SPC animal core facility. Mice were fed standard chow (Harlan Laboratories) and water ad libitum. […] Infected animals (n = 5) were subsequently treated by intraperitoneal injection 30 min post-infection with 100 mg/kg of compound in 300 μL sterile saline solution, 5% Tween 80, 10% DMSO (V/V), ampicillin (300mg/kg), or vehicle (sterile saline solution, 5% Tween 80, 10% DMSO (V/V)) as positive and negative controls, respectively. Animals were closely observed during a period of 24 h and mice that show signs of severe sepsis were humanely euthanized. Mice were anesthetized by intraperitoneal injection of ketamine (80-100mg/kg) and xylazine (10–15 mg/kg). Once sedated, blood was collected by cardiac puncture. Immediately after blood collection the mice were euthanized by cervical dislocation. Spleens were harvested aseptically, weighed and homogenized in 500 μl of sterile saline solution using an IKA T10 basic disperser (IKA, Wilmington NC). Spleen homogenates were serially diluted and plated onto BHI agar plates. Bacterial counts were determined following 24 h incubation at 37°C and expressed as CFU per gram for spleen.
We established a murine model for sepsis to evaluate the efficacy of 6jc48-1 as an antibiotic agent in vivo. […] Based on the data obtained in the pharmacokinetic analysis, mice (n = 5) were inoculated intraperitoneally with E. faecalis EF1509 (~5 x 10^8 CFU/ animal) and treated after 30 min with compound 6jc48-1 (100 mg/kg IP), ampicillin (300 mg/kg IP) or vehicle. Animals were monitored for survival and after 24 h spleen samples were collected and analyzed for the presence of bacteria. Bacterial counts were determined by plating serial dilutions on BHI agar plates and compared to control treatment with ampicillin as measures of efficacy (Fig 5).

[6] = Liver microsome stability; type: in vitro ADME; settings: human liver microsomes, pH 7.4, 1h 37 °C
Procedure: The in vitro microsome stability assay was performed using human liver microsomes and a Biomek FXP liquid handling workstation to deliver reagents to a 96 deep well plate on a shaking peltier with temperature controls. Human liver microsomes were purchased from Corning®. The test compound was incubated in an aqueous reaction mixture (200 ul total volume) consisting of human liver microsomes (150 mixed donor pool) and NADPH Regenerating System Solutions A and B (Corning®) in the presence of 100 mM potassium phosphate buffer (pH 7.4). The NADPH solution A comprises nicotinamide adenine dinucleotide phosphate (NADP+) and glucose 6-phosphate and solution B contains glucose-6-phosphate dehydrogenase. Solutions A and B were combined prior to adding to the reaction plate to generate a supply of NADPH. The NADPH was added last to simultaneously initiate the reactions. The final concentration of the test compound was 10 uM and the microsomal protein concentration was 0.5 mg/ml. After incubation at 37°C, the reaction was terminated at 0, 5, 10, 20, 30, 40, 50 and 60 minutes, respectively, by the addition of 600 uL of acetonitrile. Three replicates were run for each time point. The quenched reaction plate was centrifuged at 4500 rpm for 10 minutes. The supernatant was diluted 1:2 in 30% Methanol in water for LC/MS/MS analyses to monitor substrate depletion. Water was substituted for NADPH for the zero time-point samples. A control plate, without NADPH cofactor, was completed on the same day, using the same conditions.
The half-life (t1/2) was obtained using the equation below: t1/2=−0.693/slope
Where slope is the slope of the line formed by ln(% remaining test compound) vs. time. The in vitro intrinsic clearance (CLint) value was calculated using equation: CLint=(0.693/t1/2)(incubation volume(ul)/total microsomal protein(mg))

T3 sequence (P08684 whole entry): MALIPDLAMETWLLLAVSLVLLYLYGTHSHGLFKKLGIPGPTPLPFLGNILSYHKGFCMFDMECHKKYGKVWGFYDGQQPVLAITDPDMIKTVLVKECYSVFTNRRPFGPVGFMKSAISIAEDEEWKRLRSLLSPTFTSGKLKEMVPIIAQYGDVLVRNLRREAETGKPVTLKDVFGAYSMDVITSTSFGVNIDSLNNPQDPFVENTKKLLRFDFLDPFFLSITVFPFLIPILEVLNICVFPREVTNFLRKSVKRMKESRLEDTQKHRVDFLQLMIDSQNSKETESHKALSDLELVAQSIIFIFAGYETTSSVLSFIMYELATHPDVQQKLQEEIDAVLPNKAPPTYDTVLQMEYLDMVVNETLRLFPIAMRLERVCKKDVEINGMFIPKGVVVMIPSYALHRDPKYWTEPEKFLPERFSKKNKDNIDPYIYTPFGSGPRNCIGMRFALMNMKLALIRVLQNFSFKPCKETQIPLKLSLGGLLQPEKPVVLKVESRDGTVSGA
T1 sequence (P10635 whole entry): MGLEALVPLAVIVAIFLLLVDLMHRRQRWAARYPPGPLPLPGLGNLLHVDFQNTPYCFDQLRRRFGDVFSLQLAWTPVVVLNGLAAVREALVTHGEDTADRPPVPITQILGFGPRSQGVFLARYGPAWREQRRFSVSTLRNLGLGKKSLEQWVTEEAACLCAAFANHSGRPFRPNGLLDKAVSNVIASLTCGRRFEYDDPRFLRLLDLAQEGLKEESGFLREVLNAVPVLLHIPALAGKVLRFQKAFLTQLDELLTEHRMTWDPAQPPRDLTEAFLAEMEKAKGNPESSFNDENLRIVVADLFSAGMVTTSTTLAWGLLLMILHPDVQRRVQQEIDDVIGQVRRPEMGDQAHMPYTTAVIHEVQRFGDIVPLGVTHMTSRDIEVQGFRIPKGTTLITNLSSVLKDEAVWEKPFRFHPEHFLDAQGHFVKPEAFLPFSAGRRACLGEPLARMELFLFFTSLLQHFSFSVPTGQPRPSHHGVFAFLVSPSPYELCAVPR
T2 sequence (P33261 whole entry): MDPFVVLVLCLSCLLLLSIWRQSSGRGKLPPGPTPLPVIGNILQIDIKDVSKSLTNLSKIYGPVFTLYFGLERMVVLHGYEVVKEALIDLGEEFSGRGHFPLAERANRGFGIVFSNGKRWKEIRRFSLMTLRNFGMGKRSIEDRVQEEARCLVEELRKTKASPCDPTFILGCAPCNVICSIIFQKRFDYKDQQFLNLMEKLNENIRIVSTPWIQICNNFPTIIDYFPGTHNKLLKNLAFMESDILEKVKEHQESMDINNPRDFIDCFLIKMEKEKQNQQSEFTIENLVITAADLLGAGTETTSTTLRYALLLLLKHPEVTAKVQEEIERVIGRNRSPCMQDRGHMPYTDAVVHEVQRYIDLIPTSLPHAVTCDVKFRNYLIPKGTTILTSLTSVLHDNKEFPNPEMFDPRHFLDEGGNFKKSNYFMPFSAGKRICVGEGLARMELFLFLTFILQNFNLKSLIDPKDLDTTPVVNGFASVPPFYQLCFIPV

Compound: CN(C)c1ccc(/C=C/c2cc(-c3ccc(Br)cc3)cc(-c3ccc(Br)cc3)[o+]2)cc1 [6jc48-1]
- IC50 [1]: > 10 µM
- IC50 [2]: > 10 µM
- IC50 ([3]; substrate BFC, read-out: P450 enzyme inhibition IC50 CYP3A4/ BFC): 1.3 µM
- IC50 ([3]; human, recombinant human CYP3A4 (Supersomes), pH 7.4, probe DBF, substrate DBF, read-out: P450 enzyme inhibition IC50 CYP3A4/ DBF): > 10 µM
- fraction unbound at 12 min [4]: 0.11
- Bacterial counts in spleen ([5]; IP treatment 30 min post-infection, spleen collected after 24 h): significant bacterial clearance
- Survival of infected animals ([5]; n = 5, IP treatment 30 min post-infection, length of the experiment (24 h)): Four out of five
- half-life at 10 uM ([6]; read-out: Liver microsome stability Half-life): > 1 h
- microsomal CLint at 10 uM ([6]; read-out: Liver microsome stability clearance): < 23 µL/min/mg
